# Reference: patent publication US20250281497A1, “FUSED AMINO PYRIMIDINE COMPOUNDS FOR TREATMENT OF SEIZURE DISORDERS” (Ovid Therapeutics Inc., priority 2024, published 2025)
# Several values for one entry are separate records, joined by “and”; a condition that tells them apart may be missing. Identical values can stand only once.
# How the values were obtained:
# KCC2 [1] = biological target: T1, KCC2 (Homo sapiens, UniProt Q9H2X9); assay: FLIPR Tl+ flux assay, HEK-293 cells expressing KCC2; assay type: cell-based
# T1 construct: expressed in transfected cells; host or cells: HEK-293 (ATCC CRL-1573)
# T1 sequence (Q9H2X9 1-1116 isoform Q9H2X9-2): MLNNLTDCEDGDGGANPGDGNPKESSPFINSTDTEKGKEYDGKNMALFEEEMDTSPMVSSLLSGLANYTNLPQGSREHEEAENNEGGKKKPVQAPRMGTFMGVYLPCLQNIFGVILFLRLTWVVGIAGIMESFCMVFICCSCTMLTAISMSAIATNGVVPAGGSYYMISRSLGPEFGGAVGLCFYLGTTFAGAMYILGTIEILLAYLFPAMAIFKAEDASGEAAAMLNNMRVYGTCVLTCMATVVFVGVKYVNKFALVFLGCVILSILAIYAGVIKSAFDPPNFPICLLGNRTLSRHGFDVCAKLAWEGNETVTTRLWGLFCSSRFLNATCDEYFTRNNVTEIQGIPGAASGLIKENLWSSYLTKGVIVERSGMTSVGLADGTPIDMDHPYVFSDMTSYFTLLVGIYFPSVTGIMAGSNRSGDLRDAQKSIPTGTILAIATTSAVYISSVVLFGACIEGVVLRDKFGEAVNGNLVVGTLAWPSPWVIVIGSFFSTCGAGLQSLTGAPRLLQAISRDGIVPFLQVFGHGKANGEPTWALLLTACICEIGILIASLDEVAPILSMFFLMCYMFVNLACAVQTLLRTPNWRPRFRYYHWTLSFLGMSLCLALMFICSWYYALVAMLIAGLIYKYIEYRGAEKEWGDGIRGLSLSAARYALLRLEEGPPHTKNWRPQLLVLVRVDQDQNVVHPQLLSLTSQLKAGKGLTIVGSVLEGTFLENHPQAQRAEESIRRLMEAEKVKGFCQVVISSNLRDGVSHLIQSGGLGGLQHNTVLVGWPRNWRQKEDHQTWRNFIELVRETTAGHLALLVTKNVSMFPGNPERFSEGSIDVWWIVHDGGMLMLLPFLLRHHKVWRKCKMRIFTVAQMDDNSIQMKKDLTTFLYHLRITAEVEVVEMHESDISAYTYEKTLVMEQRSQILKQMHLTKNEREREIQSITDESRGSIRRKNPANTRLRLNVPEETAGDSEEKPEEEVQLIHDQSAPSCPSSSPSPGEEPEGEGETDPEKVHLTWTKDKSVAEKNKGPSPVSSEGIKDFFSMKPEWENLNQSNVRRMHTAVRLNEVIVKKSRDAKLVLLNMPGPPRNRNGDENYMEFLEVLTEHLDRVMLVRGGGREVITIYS
# Procedure: A multi-tiered high-throughput screening assay was used, leveraging a proprietary library of 1.3 million small molecule compounds from AstraZeneca (Cambridge, UK) to identify chemical entities capable of activating KCC2. A single point concentration of 30 μM was used to identify potassium flux using an established thallium […] influx FLIPR assay as the primary read out in HEK-293 cells overexpressing KCC2 (Cardarelli et al., Nat. Med. 23, 1394-1396 (2017); Conway et al., J Biol Chem 292, 21253-21263 (2017); Lee et at, 2022, supra).
# Cell Culture and biotinylation. […]
# FLIPR TI Flux assay. HEK-293 cells were washed with HBSS, and then incubated with loading buffer containing TI sensitive fluorescent dye (https://www.moleculardevices.com), 20 μM bumetanide 20 μM ouabain and 2.5 mM probenecid for 1 h at room temperature (RT) under control conditions or with drugs in the dark using a FlexStation 3 microplate reader (Molecular Devices) and imaged […] for 30 min. Stimulus buffer was added containing 5 mM K^+/0.5 mM Tl^+ and cells were imaged every 1.5 over a 190 second time course The initial rate Tl^+ uptake (Relative Fluorescence Units (RFU) per second) was determined following addition of the stimulus buffer as outlined previously (Conway et at, 2017, supra) (Lee et at, 2022, supra). […]
# KCC2 [2] = biological target: T1, KCC2; assay: Cellular thermal shift assay (CETSA) in transfected HEK-293 cells; assay type: binding; settings: 30 μM, 90 min, heated 37-58° C.
# Procedure: Determining if compounds in SSA directly interact with KCC2. This was tested using a cellular thermal shift assay (CETSA), which measures the ability of a drug to modify the thermal stability of its target in whole cells (Kawatkar et al., ACS Chem. Biol. 14, 1913-1920 (2019); Martinez et al., Sci Rep 8, 9472 (2018)).
# 2×10^6 transfected HEK-293 cells were incubated with 30 μM drug or vehicle for 90 min at 37° C. and then heated from 37-58° C. for 5 min. Cells were rapidly chilled to 25° C. and NP40 was added to a final concentration […] to snap freezing in liquid nitrogen. Following 5 freeze/thaw cycles lysates were centrifuged at 12,000×g to remove denatured proteins and associated cell debris.
# Aliquots of HEK-293 cells expressing KCC2 were exposed to 30 μM SSA, heated from 37-55° C. The remaining level of soluble native KCC2 at each temperature was measured by immunoblotting and normalized to the level seen at 37° C. which was given a value of 1. […] This panel included protein kinase C isoforms, OSR1, SPAK (STK39) and with-no-lysine kinases (WNK), all of which phosphorylate KCC2 on multiple residues to indirectly modify its activity (Kahle et al., 2013, supra; Smalley et al., 2020, supra).
structure (smiles),measurement,setting,value
"C[C@@H]1CN(c2nc3c(c(Nc4ccc(C5CCCCC5)cc4)n2)COC3)CCO1 [Compound A, (R)—N-(4-cyclohexylphenyl)-2-(2-methylmorpholino)-5,7-dihydrofuro[3,4-d]pyrimidin-4-amine]",EC50,"KCC2 [1]; HEK-293 cells expressing KCC2, 1% β-cyclodextrin vehicle, read-out: EC50 for KCC2 as measured by Tl+ flux",260 nM and 261 nM
same,maximum potentiation of KCC2,"KCC2 [1]; saturating concentration of 3 μM, 1% BCD vehicle",90%
same,thermal stability of KCC2 / direct binding (CETSA),KCC2 [2],capable of directly binding to KCC2
